Test results published in patent publication US20240294488A1, “ISOTOPOLOGES, SALTS, CRYSTALLINE FORMS, STEREOISOMERS, OF METHYLONE AND ETHYLONE AND METHODS OF USE THEREOF” (Terran Biosciences Inc., priority 2021, published 2024).

What was measured:
[1] = Metabolic stability in human liver microsomes; format: in vitro ADME; details: for difference in half-life and intrinsic clearance compared with the non-deuterated methylone hydrochloride: human liver microsomes; for half-life at 1 μM / microsomal CLint at 1 μM: pooled liver microsomes, pH 7.4, human liver microsomes 0.5 mg/mL, 1 μM compound, NADPH, 0-45 min
Protocol: Pooled liver microsomes are purchased from a reputable commercial supplier. Microsomes are stored at […] prior to use. Microsomes (final protein concentration 0.5 mg/mL), 0.1 M phosphate buffer pH 7.4 and test compound (final substrate concentration 1 μM; final DMSO concentration 0.25%) are preincubated at 37° C. prior to the addition of NADPH (final concentration 1 mM) to initiate the reaction. A minus cofactor control incubation is included for each compound tested where 0.1 M phosphate buffer pH 7.4 is added instead of NADPH (minus NADPH). Two control compounds are included with each species. All incubations are performed singularly for each test compound. Each compound is incubated for 0, 5, 15, 30 and 45 min. The control (minus NADPH) is incubated for 45 min only. The reactions are stopped by transferring incubate into acetonitrile at the appropriate time points, in a 1:3 ratio. The termination plates are centrifuged at 3,000 rpm for 20 min at 4° C. to precipitate the protein.
From a plot of ln peak area ratio (compound peak area/internal standard peak area) against time, the gradient of the line is determined. Subsequently, half-life and intrinsic clearance are calculated using the equations below:
where V=Incubation volume (μL)/Microsomal protein (mg)
Relevant control compounds were assessed, ensuring intrinsic clearance values fall within the specified limits (if available).

C57/BL6J mice = experiment: Forced swim test (FST); format: in vivo, mouse; details: 24 h after administration
Protocol: As increased cortical structural plasticity in the anterior parts of the brain mediates the sustained (>24 h) antidepressant-like effects of ketamine and play a role in the therapeutic effects of 5-HT2A agonists, the impact of the present compounds on forced swim test (FST) behavior is evaluated. First, a pretest is used to induce a depressive phenotype. Compounds are administered 24 h after the pre-test, and the FST is performed 24 h and 7 d post compound administration.
Male C57/BL6J mice (9-10 weeks old at time of experiment) are obtained. After 1 week in the vivarium each mouse is handled for approximately 1 minute by the experimenter for 3 consecutive days leading up to the first FST. All experiments are carried out by the same experimenter who performs handling. During the FST, mice undergo a 6 min swim session in a clear Plexiglas cylinder 40 cm tall, 20 cm in diameter, and filled with 30 cm of 24±1° C. water. […] Immobility scores for all mice are determined after the pre-test and mice are randomly assigned to treatment groups to generate groups with similar average immobility scores to be used for the following two FST sessions. […] Experiments are video-recorded and manually scored offline. Immobility time—defined as passive floating or remaining motionless with no activity other than that needed to keep the mouse's head above water—is scored for the last 4 min of the 6 min trial.

[2] = cited from earlier work

With `Cl.[2H]C([2H])([2H])N[C@H](C)C(=O)c1ccc2c(c1)OC([2H])([2H])O2` [(R)-Methylone-d5 hydrochloride, (R)-1-(benzo[d][1,3]dioxol-5-yl-2,2-d2)-2-((methyl-d3)amino)propan-1-one hydrochloride] the “difference in half-life and intrinsic clearance compared with the non-deuterated methylone hydrochloride” value [1] was “the most significant difference in half-life and intrinsic clearance”, the half-life at 1 μM [1] was 221 min and the microsomal CLint at 1 μM [1] was 6.27 µL/min/mg.

For `Cl.[2H]C([2H])([2H])N[C@@H](C)C(=O)c1ccc2c(c1)OCO2` [(S)-Methylone-d3 hydrochloride, (S)-1-(benzo[d][1,3]dioxol-5-yl)-2-((methyl-d3)amino)propan-1-one HCl], the “difference in half-life and intrinsic clearance compared with the non-deuterated methylone hydrochloride” value [1] was “demonstrated differences in half-life and intrinsic clearance”, the half-life at 1 μM [1] was 144 min and the microsomal CLint at 1 μM [1] was 9.6 µL/min/mg.

With `Cl.[2H]C1([2H])Oc2ccc(C(=O)[C@@H](C)NC)cc2O1` [(R)-Methylone-d2 hydrochloride, (R)-1-(benzo[d][1,3]dioxol-5-yl-2,2-d2)-2-((methyl)amino)propan-1-one HCl] the “difference in half-life and intrinsic clearance compared with the non-deuterated methylone hydrochloride” value [1] was “demonstrated differences in half-life and intrinsic clearance”, the half-life at 1 μM [1] was 198 min and the microsomal CLint at 1 μM [1] was 7 µL/min/mg.

With `Cl.[2H]C1([2H])Oc2ccc(C(=O)[C@H](C)NC)cc2O1` [(S)-Methylone-d2 hydrochloride, (S)-1-(benzo[d][1,3]dioxol-5-yl-2,2-d2)-2-(methylamino)propan-1-one hydrochloride] the “difference in half-life and intrinsic clearance compared with the non-deuterated methylone hydrochloride” value [1] was “demonstrated differences in half-life and intrinsic clearance”, the half-life at 1 μM [1] was 147 min and the microsomal CLint at 1 μM [1] was 9.41 µL/min/mg.

For `Cl.[2H]C([2H])([2H])NC(C)C(=O)c1ccc2c(c1)OCO2` (racemic) [(rac)-Methylone-d3 hydrochloride, 1-(benzo[d][1,3]dioxol-5-yl)-2-((methyl-d3)amino)propan-1-one HCl], the “difference in half-life and intrinsic clearance compared with the non-deuterated methylone hydrochloride” value [1] was “demonstrated differences in half-life and intrinsic clearance”, the half-life at 1 μM [1] was 173 min and the microsomal CLint at 1 μM [1] was 8.02 µL/min/mg.

For `CNC1(c2ccccc2Cl)CCCCC1=O` (stereo not drawn) [ketamine], the “immobility in forced swim test” value (C57/BL6J mice) was “significantly reduced immobility”.

In the case of `CNC(C)C(=O)c1ccc2c(c1)OCO2` (stereo not drawn) [Methylone, 3,4-methylenedioxy-N-methylcathinone], the “Oral Methylone Dose, Drug Activity Level Very Strong” value ([2]; oral, modified from WHO 2014) is listed as at least 270 mg and the “effect of re-dose on duration of effects” value ([2]; re-dose of one-third to one-half the initial dose, WHO 2014) is listed as “prolongs duration for approximately one hour”.

With `Cl.[2H]C([2H])([2H])NC(C)C(=O)c1ccc2c(c1)OC([2H])([2H])O2` (racemic) [(rac)-Methylone-d5 hydrochloride, 1-(benzo[d][1,3]dioxol-5-yl-2,2-d2)-2-((methyl-d3)amino)propan-1-one HCl] the “difference in half-life and intrinsic clearance compared with the non-deuterated methylone hydrochloride” value [1] was “the most significant difference in half-life and intrinsic clearance”, the half-life at 1 μM [1] was 183 min and the microsomal CLint at 1 μM [1] was 7.59 µL/min/mg.

In the case of `Cl.[2H]C1([2H])Oc2ccc(C(=O)C(C)NC)cc2O1` (racemic) [(rac)-Methylone-d2 hydrochloride, 1-(benzo[d][1,3]dioxol-5-yl-2,2-d2)-2-((methyl)amino)propan-1-one HCl], the “difference in half-life and intrinsic clearance compared with the non-deuterated methylone hydrochloride” value [1] is reported as “demonstrated differences in half-life and intrinsic clearance”, the half-life at 1 μM [1] is reported as 147 min and the microsomal CLint at 1 μM [1] is reported as 9.46 µL/min/mg.

With `Cl.[2H]C([2H])([2H])N[C@@H](C)C(=O)c1ccc2c(c1)OC([2H])([2H])O2` [(S)-Methylone-d5 hydrochloride, (S)-1-(benzo[d][1,3]dioxol-5-yl-2,2-d2)-2-((methyl-d3)amino)propan-1-one hydrochloride] the “difference in half-life and intrinsic clearance compared with the non-deuterated methylone hydrochloride” value [1] was “the most significant difference in half-life and intrinsic clearance”, the half-life at 1 μM [1] was 153 min and the microsomal CLint at 1 μM [1] was 9.07 µL/min/mg.

For `Cl.[2H]C([2H])([2H])N[C@H](C)C(=O)c1ccc2c(c1)OCO2` [(R)-Methylone-d3 hydrochloride, (R)-1-(benzo[d][1,3]dioxol-5-yl)-2-((methyl-d3)amino)propan-1-one HCl], the “difference in half-life and intrinsic clearance compared with the non-deuterated methylone hydrochloride” value [1] was “demonstrated differences in half-life and intrinsic clearance”, the half-life at 1 μM [1] was 214 min and the microsomal CLint at 1 μM [1] was 6.49 µL/min/mg.
